Earlier results in patent US9616098B2, “Formulations of vancomycin” (SCIDOSE, LLC, priority 2013, dated 2017).

Q: With CN[C@H](CC(C)C)C(=O)N[C@H]1C(=O)N[C@@H](CC(N)=O)C(=O)N[C@H]2C(=O)N[C@H]3C(=O)N[C@H](C(=O)N[C@H](C(=O)O)c4cc(O)cc(O)c4-c4cc3ccc4O)[C@H](O)c3ccc(c(Cl)c3)Oc3cc2cc(c3O[C@@H]2O[C@H](CO)[C@@H](O)[C@H](O)[C@H]2O[C@H]2C[C@](C)(N)[C@H](O)[C@H](C)O2)Oc2ccc(cc2Cl)[C@H]1O [Vancomycin] as the compound, how does the “stable in water after reconstitution” value read?
A: approximately 24 hours
